Where “and” joins values, the source holds several entries; their conditions need not be identical. Equal entries are not always repeated.
Assays:
DUX4 [1] = assay: DUX4 expression downregulation by kinase family inhibitors (Table 1); assay type: cell-based; details: for EC50: DUX4 reduction; for Quantitation % of DUX4 reduction @the lowest significant [C]: at the lowest significant concentration; for lowest significant [C]: concentration in brackets at which the % DUX4 reduction is given
DUX4 [2] = assay: FSHD hESC-SkM immunocytochemistry, DUX4 expression; assay type: cell-based, human; details: Genea049 hESC-SkM
Procedure: (§1) FIG. 6 provides an example of a screening and culturing workflow for hESC-SkM assays. At Day 0, hESC-derived myoblasts are thawed into a 96-well plate in myoblast medium (Genea BioCells). On Day 2, the medium is replaced with new myoblast medium containing 1.15 μM. Decitabine. […] On Day 7, the myotubes are analyzed. For example, the myotubes may be analyzed for MHC expression or DUX4 expression.
(§2) Genea049 FSHD-affected human Embryonic Stem Cells (hESCs) were differentiated using Genea's myogenic differentiation protocol (Caron et 2015) to the myoblast stage and cryopreserved. Frozen myoblasts were resuscitated and 4500 cells were plated into each well of a 96-well collagen I coated tissue culture plate in myoblast medium. After two days of cell growth medium was changed to 100 μL per well myoblast medium containing 1.15 μM Decitabine. […] Cells were allowed to differentiate to myotubes for four additional days then were fixed and analyzed for quantification of DUX4 expression, Myosin Heavy Chain expression, and nuclei number. Triplicate wells of each condition were averaged.
as §2, with “et al.,” for “et”, “number by high-content imaging.” for “number.”

Genea049 FSHD hESC-SkM = assay: FSHD hESC-SkM immunocytochemistry, Myosin Heavy Chain and nuclei (myogenic inhibition/toxicity); assay type: cell-based, human
Procedure: as §1, §2
as §2, with “et al.,” for “et”, “number by high-content imaging.” for “number.”

Row | SMILES | EC50 (DUX4 [1]) | Quantitation % of DUX4 reduction @the lowest significant [C] (DUX4 [1]) | lowest significant [C] (DUX4 [1]) | DUX4 expression (DUX4 [2]; 100 nM, four days of culture during myotube formation) | DUX4 expression, dose curve (DUX4 [2]; six concentration points 10 nM-3 μM, four days) | Myosin Heavy Chain expression and nuclei count, dose curve (Genea049 FSHD hESC-SkM; 10 nM-3 μM, four days) | Myosin Heavy Chain expression and nuclei count (Genea049 FSHD hESC-SkM; 100 nM, four days of culture)
1 | Cc1ccc(NC(=O)c2ccc(CN3CC[C@H](N(C)C)C3)c(C(F)(F)F)c2)cc1Nc1nccc(-c2cncnc2)n1 [Bafetinib] | 132 nM | 67.90% | 2.08 µM | – | – | – | –
2 | COc1cc(Nc2c(C#N)cnc3cc(OCCCN4CCN(C)CC4)c(OC)cc23)c(Cl)cc1Cl [Bosutinib] | – | 70.58% | 3 µM | – | – | – | –
3 | Cc1ncc(NC(=O)c2ccc(CN3CCN(C)CC3)c(C(F)(F)F)c2)cc1Nc1nccc(-c2cccnc2)n1 [Flumatinib] | 82 nM | 76.09% | 2.08 µM | – | – | – | –
4 | NS(=O)(=O)OC[C@@H]1C[C@@H](n2ccc3c(N[C@H]4CCc5ccccc54)ncnc32)C[C@@H]1O [GBC0772, MLN4924] | – | – | – | decreased DUX4 expression | dose-dependent decreased DUX4 expression | decreased Myosin Heavy Chain expression and nuclei count | decreased Myosin Heavy Chain expression and nuclei count
5 | Cc1ccc(NC(=O)c2ccc(CN3CCN(C)CC3)cc2)cc1Nc1nccc(-c2cccnc2)n1 [Imatinib] | – | 61.13% | – | – | – | – | –
6 | Cc1ccc(NC(=O)c2ccc(CN3CC[C@H](N(C)C)C3)c(C(F)(F)F)c2)cc1Nc1ncc(-c2cncnc2)cn1 [Lyn-IN-1] | 175 nM | 70.73% | 0.88 µM | – | – | – | –
7 | Cc1cn(-c2cc(NC(=O)c3ccc(C)c(Nc4nccc(-c5cccnc5)n4)c3)cc(C(F)(F)F)c2)cn1 [Nilotinib] | – | 76.71% | 5 µM | – | – | – | –
8 | CC(C)(C)n1nc(-c2ccc(Cl)cc2)c2c(N)ncnc21 [PP2] | 153 nM and 287 nM | 41.77% and 66.61% | – | – | – | – | –
